Results from paper PMC4705983, “Structural Dissection of the Maltodextrin Disproportionation Cycle of the Arabidopsis Plastidial Disproportionating Enzyme 1 (DPE1)” (The Journal of Biological Chemistry, 2015).

Tests used:
[1] = target: T1, AtDPE1 (disproportionating enzyme 1) (Arabidopsis thaliana, UniProt Q9LV91); assay: X-ray crystallography, crystal soak; assay type: biochemical; conditions: covalent; 10 mM soak, pH 8.0; only the maltosyl unit (subsites -2, -1) linked to Asp-373 seen, from slow cleavage; 2.30 Å
T1 construct: gene DPE1; residues 46-576, transit peptide removed, N-terminal His6 tag kept (pET151/D-TOPO), homodimer
T1 sequence (Q9LV91 46-576): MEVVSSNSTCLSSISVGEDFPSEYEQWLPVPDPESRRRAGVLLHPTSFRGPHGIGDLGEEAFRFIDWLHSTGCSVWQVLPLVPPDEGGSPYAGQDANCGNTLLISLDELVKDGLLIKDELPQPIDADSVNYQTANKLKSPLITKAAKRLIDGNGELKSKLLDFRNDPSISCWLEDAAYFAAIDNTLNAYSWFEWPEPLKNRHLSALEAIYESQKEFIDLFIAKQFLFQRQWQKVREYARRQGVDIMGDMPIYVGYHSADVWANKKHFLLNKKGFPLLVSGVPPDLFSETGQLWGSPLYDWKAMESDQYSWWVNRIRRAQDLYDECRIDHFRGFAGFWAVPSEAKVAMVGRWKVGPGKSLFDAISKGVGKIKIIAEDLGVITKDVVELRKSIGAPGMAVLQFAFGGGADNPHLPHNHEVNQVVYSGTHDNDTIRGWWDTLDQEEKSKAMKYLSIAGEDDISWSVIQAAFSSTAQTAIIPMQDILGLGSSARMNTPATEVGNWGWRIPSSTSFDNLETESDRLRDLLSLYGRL

[2] = target: T1, AtDPE1 (disproportionating enzyme 1); assay: turnover in crystal (transglycosylation during soak), X-ray crystallography; assay type: biochemical; conditions: 10 mM soak, pH 8.0; intact maltotriose not seen, longer malto-oligosaccharide bound

| Structure (SMILES) | X-ray crystallography, crystal soak [1] | turnover in crystal (transglycosylation during soak), X-ray crystallography [2] |
| --- | --- | --- |
| OC[C@H]1O[C@@H]2O[C@H]3[C@H](O)[C@@H](O)[C@@H](O[C@H]4[C@H](O)[C@@H](O)[C@@H](O[C@H]5[C@H](O)[C@@H](O)[C@@H](O[C@H]6[C@H](O)[C@@H](O)[C@@H](O[C@H]7[C@H](O)[C@@H](O)[C@@H](O[C@H]8[C@H](O)[C@@H](O)[C@@H](O[C@H]1[C@H](O)[C@H]2O)O[C@@H]8CO)O[C@@H]7CO)O[C@@H]6CO)O[C@@H]5CO)O[C@@H]4CO)O[C@@H]3CO [BCD, β-cyclodextrin] | The covalently bound donor most likely resulted from a slow hydrolysis of β-cyclodextrin |  |
| OC[C@H]1O[C@H](O[C@H]2[C@H](O)[C@@H](O)[C@@H](O[C@H]3[C@H](O)[C@@H](O)C(O)O[C@@H]3CO)O[C@@H]2CO)[C@H](O)[C@@H](O)[C@@H]1O (some centres unmarked) [MA3, maltotriose] |  | malto-oligosaccharide in each active site, indicative of transglycosylation reactions occurring during crystal soaking |
